# Data as given in ChEMBL document CHEMBL1201862, “PubChem BioAssay data set” (2004).
#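 96-well plates; 48 h exposure; 5 concentrations. Endpoints by linear interpolation between flanking doses. Not reached: highest tested concentration assigned. GI50 = concentration required for 50% inhibition of growth.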 Calls of active or inactive are those of the source. No stated cut-off is given here; in the data, active = GI50 up to about 1.1 µM and inactive = higher.
# Assays:
# Test in all cases: NCI anticancer screen, dose series, 48 h
# [1] = test system: 786-0
# [2] = test system: A498
# [3] = test system: A549
# [4] = test system: ACHN
# [5] = test system: CAKI-1
# [6] = test system: CCRF-CEM
# [7] = test system: HCC 2998
# [8] = test system: HCT-15
# [9] = test system: HOP-62
# [10] = test system: LOX IMVI
# [11] = test system: MCF7
# [12] = test system: NCI-H23
# [13] = test system: OVCAR-3
# [14] = test system: OVCAR-4
# [15] = test system: OVCAR-8
# [16] = test system: RPMI-8226
# [17] = test system: SK-MEL-2
# [18] = test system: SK-MEL-5
# [19] = test system: SK-OV-3
# [20] = test system: T47D
Structure (SMILES),GI50 [1],GI50 [2],GI50 [3],GI50 [4],GI50 [5],GI50 [6],GI50 [7],GI50 [8],GI50 [9],GI50 [10],GI50 [11],GI50 [12],GI50 [13],GI50 [14],GI50 [15],GI50 [16],GI50 [17],GI50 [18],GI50 [19],GI50 [20]
COc1ccc2c(c1)C(OC)C1c3c(cc4c(c3-2)OCO4)CCN1C (stereo not given),3.64 µM (inactive),1.82 µM (inactive),2.92 µM (inactive),1.82 µM (inactive),2.12 µM (inactive),2.24 µM (inactive),3.4 µM (inactive),2.13 µM,2.43 µM (inactive),2.81 µM (inactive),2.67 µM (inactive),2.8 µM (inactive),5.81 µM (inactive),2.32 µM (inactive),2.5 µM (inactive),3.46 µM (inactive),2.73 µM (inactive),2.43 µM (inactive),4.5 µM (inactive),6.56 µM (inactive)
O=C(N/C(=C\c1ccccc1)c1nc2ccccc2c(=O)o1)c1ccccc1,41.7 µM (inactive),> 100 µM (inactive),> 100 µM (inactive),31 µM (inactive),> 78.3 µM (inactive),> 100 µM (inactive),> 100 µM (inactive),97.1 µM,> 52.5 µM (inactive),27.3 µM (inactive),5.38 µM (inactive),46.3 µM (inactive),> 70.5 µM (inactive),> 88.5 µM (inactive),> 57.7 µM (inactive),> 100 µM (inactive),> 100 µM (inactive),> 100 µM (inactive),59.2 µM (inactive),> 28.6 µM (inactive)
Cc1ccc(NC(=O)/C=C/c2ccccc2)c(C)c1,74.5 µM (inactive),> 100 µM (inactive),> 100 µM (inactive),39.6 µM (inactive),> 100 µM (inactive),> 100 µM (inactive),> 100 µM (inactive),> 100 µM,32.7 µM (inactive),> 100 µM (inactive),> 100 µM (inactive),> 100 µM (inactive),> 100 µM (inactive),> 100 µM (inactive),37.3 µM (inactive),> 100 µM (inactive),> 100 µM (inactive),> 100 µM (inactive),43.2 µM (inactive),> 100 µM (inactive)
COc1cc(/C=C2\CCC(C)C3=C(c4cc(OC)c(OC)c(OC)c4)C(C#N)=C(N)OC32)cc(OC)c1OC (stereo not given),1.95 µM (inactive),4 µM (inactive),3.46 µM (inactive),3.89 µM (inactive),4.73 µM (inactive),2.05 µM (inactive),4.16 µM (inactive),2.08 µM,7.45 µM (inactive),2 µM (inactive),2.24 µM (inactive),3.72 µM (inactive),4.1 µM (inactive),2.97 µM (inactive),3.3 µM (inactive),1.63 µM (inactive),2.09 µM (inactive),2.61 µM (inactive),5.32 µM (inactive),2.1 µM (inactive)
